Experimental data as given in article PMC7663263 (Molecules, 2020).
Like-named read-outs stand apart in the source and are kept apart here.

How the values were obtained:
[1] = system: adult ex vivo S. mansoni worms; assay: Adult ex vivo Schistosoma worm killing assay; assay type: cell-based
Description: Adult ex vivo Schistosoma assay: Mice (Swiss-Webster) were infected with S. mansoni by percutaneous exposure for 1 h to cercariae (NMRI strain) obtained from infected Biomphalaria glabrata snails. This study was approved by the Institutional Animal Care and Use Committee of Rush University Medical Center (17-053; Department of Health and Human Services animal welfare assurance number A-3120-01). Adult worms were isolated from infected mice as described and cultured in RPMI medium +10% fetal calf serum (FCS), 10 mM glutamine, 100 IU/mL penicillin and 100 µg/mL streptomycin for 24 h before compound addition. Compounds were dissolved in DMSO and added at the indicated concentrations. The culture media was replaced every day and fresh compounds added. Control worms were treated with DMSO alone. Worms were cultured for 5 days. […] Assays were done in triplicate with about 10 worms in each well. This study was approved by the Institutional Animal Care and Use Committee of Rush University Medical Center (17-053; Department of Health and Human Services animal welfare assurance number A-3120-01).

[2] = system: adult female B. pahangi worms; assay: Adult in vitro Brugia pahangi motility assay (Worminator); assay type: cell-based; conditions: for Inhibition of Motility (%) Day 1 / Inhibition of Motility (%) Day 2 / Inhibition of Motility (%) Day 3 / Inhibition of Motility (%) Day 6: female B. pahangi, n = 4 worms; for IC50: adult female Brugia pahangi, worminator motility assay, six-point serial dilution
Description: Adult in vitro Brugia pahangi assay: Adult female B. pahangi worms were kindly provided by Dr. Brenda Beerntsen, University of Missouri, Columbia, MO. Individual female worms were assayed in 500 μL of culture medium (RPMI-1640 with 25 mM HEPES, 2.0 g/L NaHCO3, 5% heat-inactivated FBS and antibiotic/antimycotic solution) in 24-well plates. Worms treated with 1% DMSO served as negative control and there were four replicates per compound. Worms were maintained at 37 °C in a 5% CO2 incubator for the duration of the assay. Individual worm movement was assessed from day 1–6 using the Worminator [55], which reports worm motility as mean movement units (MMU), a measure of pixels displaced. MMUs are then used to calculate percent inhibition of worm motility compared to control worms.

[3] = system: human fetal lung fibroblast (MRC-5); assay: in vitro
Description: Toxicity in human fetal lung fibroblast (MRC-5) cell line and primary mouse macrophages (PMM) was assessed using a previously reported assay in 96-well microtiter plates. Tamoxifen and miltefosine were included as reference drugs (Table 10).
For MRC5SV2 or PMM cells, the assays were performed in 96-well microtiter plates, each well containing 10 µL of compound dilution and 190 µL of cell inoculum (3 × 10^4 cells/mL) as reported. Cell growth was compared to untreated controls (100% growth) and assay-media controls (0% growth). After three-day incubation, cell viability was assessed fluorometrically by adding resazurin [50 µL/well of a stock solution in phosphate buffer (50 µg/mL)], incubating for 4 h and measuring fluorescence (ex 550 nm, em 590 nm). The results are expressed as percentage reduction in cell growth as compared to untreated control wells. […] Tamoxifen was included as the reference drug.

L. loa microfilariae = L. loa microfilariae motility assay; assay type: cell-based; conditions: 10 μM
Description: O. ochengi microfilariae assays: were collected from the hides of infected cattle and washed prior to adding 10–15 microfilariae to 96-well culture plates containing confluent monkey kidney epithelial cells in 100 μL of media. Microfilariae were run in duplicate and plates were maintained at 37 °C in a 5% CO2 incubator. Microfilariae viability was visually scored using percent reduction of motility using the same scoring criteria used for adult males. Scores were recorded every 24 h after addition of drugs for 5 days using an inverted microscope.
L. loa microfilariae assays: L. loa microfilariae were purified from the blood of infected individuals using a step-wise Percoll gradient (46% and 43% Percoll) followed by centrifugation at 400 rcf for 20 min. The microfilariae were recovered in the 43% layer then assayed using the same culture conditions and method as the O. ochengi microfilariae.

[4] = system: L. infantum MHOM/MA (BE)/67 amastigotes; assay: Anti-leishmanial activity, L. infantum amastigotes in primary peritoneal mouse macrophages; assay type: cell-based, Leishmania infantum; conditions: amastigotes in primary peritoneal mouse macrophages, 5 days; read-out: Leishmania infantum IC50 (µM) ± SD
Description: Anti-leishmanial activity: L. infantum MHOM/MA (BE)/67 amastigotes were collected from the spleen of an infected donor hamster and used to infect primary peritoneal mouse macrophages grown in a 96-well plate. After 2 days outgrowth, 5 × 10^5 amastigotes were added to each well and incubated for 2 h at 37 °C. The compounds were subsequently added and the plates were further incubated for 5 days at 37 °C and 5% CO2. Parasite burdens (mean number of amastigotes/macrophage) were microscopically assessed on 500 cells after Giemsa staining and expressed as a percentage of the blank controls. Miltefosine was included as reference drug. The use of laboratory rodents was carried out in accordance to all mandatory guidelines (EU directives, including the Revised Directive 2010/63/EU on the Protection of Animals used for Scientific Purposes that came into force on 1 January 2013, and the declaration of Helsinki in its latest version) and was approved by the Ethical Committee of the University of Antwerp, Belgium [UA-ECD 2011–77 (17-02-2012 and UA-ECD 2015-90].

[5] = system: Leishmania donovani LV9 axenic amastigotes; assay: L. donovani LV9 axenic amastigotes (resazurin); assay type: cell-based; conditions: read-out: Leishmania donovani LV9 Axenic Amastigotes IC50 (µM) ± SD
Description: In vitro anti-leishmanial evaluation was perfomed on both axenic and intramacrophage L. donovani amastigotes as previously described. […] Briefly, compounds were distributed in 96-well plates using 2-fold dilutions in 100 µL PYG medium. A. castellanii trophozoites were added to each well at 5 × 10^4 amoeba/mL in 200 µL final volume. L. donovani axenic amastigotes were added to each well at 10^6 parasites/mL in 200 µL final volume. After 72 h incubation at 27 °C, 20 µL of 1 mM resazurin was added to each well and further incubated at 27 °C for 8 h for A. castellanii and for 24 h for L. donovani axenic amastigotes. In living cells, resazurin is reduced in resorufin. This conversion is monitored by measuring the absorbance at specific wavelengths of resorufin (570 nm) and resazurin (600 nm) using a microplate reader (Labsystems Multiskan MS, McLean, VA, USA). In this assay, the activity was expressed in IC50. Miltefosine and pentamidine were used as reference drugs. All experiments were performed in three independent experiments.

CC(=O)OCC1OC([S][Au][PH]2(c3ccccc3)C(c3ccccn3)=CC=C2c2ccccn2)C(OC(C)=O)C(OC(C)=O)C1OC(C)=O [GoPI-sugar, 1-thio-β-D-glucopyranose 2,3,4,6-tetraacetato-S-Au{1-phenyl-2,5-di(2-pyridyl)phosphole}]
Dead (%) Day 1 ([1]; 1 μM): 0% | Dead (%) Day 2 ([1]; 1 μM): 0% | Dead (%) Day 3 ([1]; 1 μM): 0% | Dead (%) Day 4 ([1]; 1 μM): 0% | Dead (%) Day 5 ([1]; 1 μM): 0% | Dead (%) Day 1 ([1]; 5 μM): 100% | Dead (%) Day 1 ([1]; 10 μM): 100% | Inhibition of Motility (%) Day 1 ([2]; 1 μM): 20% | Inhibition of Motility (%) Day 2 ([2]; 1 μM): 16% | Inhibition of Motility (%) Day 3 ([2]; 1 μM): 22% | Inhibition of Motility (%) Day 6 ([2]; 1 μM): 48% | Inhibition of Motility (%) Day 1 ([2]; 3 μM): 24% | Inhibition of Motility (%) Day 2 ([2]; 3 μM): 41% | Inhibition of Motility (%) Day 3 ([2]; 3 μM): 40% | Inhibition of Motility (%) Day 6 ([2]; 3 μM): 96% | Inhibition of Motility (%) Day 1 ([2]; 10 μM): 91% | Inhibition of Motility (%) Day 2 ([2]; 10 μM): 98% | Inhibition of Motility (%) Day 3 ([2]; 10 μM): 100% | Inhibition of Motility (%) Day 6 ([2]; 10 μM): 99% | IC50 ([2]; read-out: IC50 (µM) Day 2): 2.8 µM | IC50 ([2]; read-out: IC50 (µM) Day 3): 3.9 µM | IC50 ([2]; read-out: IC50 (µM) Day 6): 1.7 µM | CC50 [3]: 0.59 µM | % Inhibition of Motility L. loa mf w/MK2 Cells Day 5 (L. loa microfilariae): 38% | IC50 [4]: 2.38 µM | IC50 [5]: 1.45 ± 0.07 µM
